Laboratory results as given in ChEMBL document CHEMBL1743141, “Membrane transporters in drug development” (Nat Rev Drug Discov, 2010).
Each block holds one compound with its values, some of them ahead of it.

How the values were obtained:
Type in all cases: ADME
[1] = biological target: T1, Solute carrier organic anion transporter family member 1B1 (Homo sapiens, UniProt Q9Y6L6); test: Inhibitors of transporters of clinical importance in the absorption and disposition of drugs, OATP1B1
T1 sequence (Q9Y6L6 whole entry): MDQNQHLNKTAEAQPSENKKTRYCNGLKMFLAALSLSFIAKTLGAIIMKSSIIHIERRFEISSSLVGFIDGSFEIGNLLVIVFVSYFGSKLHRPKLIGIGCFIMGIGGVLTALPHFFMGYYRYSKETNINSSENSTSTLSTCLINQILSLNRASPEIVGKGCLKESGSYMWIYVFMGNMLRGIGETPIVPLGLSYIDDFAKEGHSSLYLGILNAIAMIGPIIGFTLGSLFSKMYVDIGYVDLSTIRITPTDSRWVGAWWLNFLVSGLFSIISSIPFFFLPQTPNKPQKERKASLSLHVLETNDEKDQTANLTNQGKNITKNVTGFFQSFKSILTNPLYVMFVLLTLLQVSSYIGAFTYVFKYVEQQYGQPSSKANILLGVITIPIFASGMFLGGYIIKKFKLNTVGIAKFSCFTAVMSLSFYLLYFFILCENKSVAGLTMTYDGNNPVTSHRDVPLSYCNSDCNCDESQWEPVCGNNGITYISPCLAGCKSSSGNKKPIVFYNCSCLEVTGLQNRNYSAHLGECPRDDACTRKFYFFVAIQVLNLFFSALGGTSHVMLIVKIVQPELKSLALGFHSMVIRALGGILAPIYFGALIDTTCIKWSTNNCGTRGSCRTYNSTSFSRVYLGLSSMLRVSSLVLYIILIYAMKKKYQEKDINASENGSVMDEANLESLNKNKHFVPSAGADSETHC

[2] = biological target: T2, Solute carrier organic anion transporter family member 1A2 (Homo sapiens, UniProt P46721); test: Inhibitors of transporters of clinical importance in the absorption and disposition of drugs, OATP1A2
T2 sequence (P46721 whole entry): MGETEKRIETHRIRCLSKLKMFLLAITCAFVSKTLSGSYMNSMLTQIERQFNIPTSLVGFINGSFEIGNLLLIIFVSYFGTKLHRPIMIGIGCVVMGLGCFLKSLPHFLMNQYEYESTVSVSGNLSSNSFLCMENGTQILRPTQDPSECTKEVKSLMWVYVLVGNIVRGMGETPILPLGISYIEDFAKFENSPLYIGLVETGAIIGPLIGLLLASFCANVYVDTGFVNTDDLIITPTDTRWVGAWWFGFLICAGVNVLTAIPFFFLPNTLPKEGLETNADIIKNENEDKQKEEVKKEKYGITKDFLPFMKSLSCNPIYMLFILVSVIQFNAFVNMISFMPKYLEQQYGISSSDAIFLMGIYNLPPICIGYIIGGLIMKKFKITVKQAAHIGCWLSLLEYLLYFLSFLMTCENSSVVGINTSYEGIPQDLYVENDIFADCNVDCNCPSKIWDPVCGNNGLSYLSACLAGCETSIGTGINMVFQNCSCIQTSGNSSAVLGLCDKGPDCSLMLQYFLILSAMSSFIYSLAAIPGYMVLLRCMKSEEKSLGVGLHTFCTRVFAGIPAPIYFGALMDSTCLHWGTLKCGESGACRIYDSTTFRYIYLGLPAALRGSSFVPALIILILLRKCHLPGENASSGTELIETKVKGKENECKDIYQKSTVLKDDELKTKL

[3] = biological target: T3, ATP-binding cassette sub-family C member 2 (Homo sapiens, UniProt Q92887); test: Inhibitors of transporters of clinical importance in the absorption and disposition of drugs, MRP2
T3 sequence (Q92887 whole entry): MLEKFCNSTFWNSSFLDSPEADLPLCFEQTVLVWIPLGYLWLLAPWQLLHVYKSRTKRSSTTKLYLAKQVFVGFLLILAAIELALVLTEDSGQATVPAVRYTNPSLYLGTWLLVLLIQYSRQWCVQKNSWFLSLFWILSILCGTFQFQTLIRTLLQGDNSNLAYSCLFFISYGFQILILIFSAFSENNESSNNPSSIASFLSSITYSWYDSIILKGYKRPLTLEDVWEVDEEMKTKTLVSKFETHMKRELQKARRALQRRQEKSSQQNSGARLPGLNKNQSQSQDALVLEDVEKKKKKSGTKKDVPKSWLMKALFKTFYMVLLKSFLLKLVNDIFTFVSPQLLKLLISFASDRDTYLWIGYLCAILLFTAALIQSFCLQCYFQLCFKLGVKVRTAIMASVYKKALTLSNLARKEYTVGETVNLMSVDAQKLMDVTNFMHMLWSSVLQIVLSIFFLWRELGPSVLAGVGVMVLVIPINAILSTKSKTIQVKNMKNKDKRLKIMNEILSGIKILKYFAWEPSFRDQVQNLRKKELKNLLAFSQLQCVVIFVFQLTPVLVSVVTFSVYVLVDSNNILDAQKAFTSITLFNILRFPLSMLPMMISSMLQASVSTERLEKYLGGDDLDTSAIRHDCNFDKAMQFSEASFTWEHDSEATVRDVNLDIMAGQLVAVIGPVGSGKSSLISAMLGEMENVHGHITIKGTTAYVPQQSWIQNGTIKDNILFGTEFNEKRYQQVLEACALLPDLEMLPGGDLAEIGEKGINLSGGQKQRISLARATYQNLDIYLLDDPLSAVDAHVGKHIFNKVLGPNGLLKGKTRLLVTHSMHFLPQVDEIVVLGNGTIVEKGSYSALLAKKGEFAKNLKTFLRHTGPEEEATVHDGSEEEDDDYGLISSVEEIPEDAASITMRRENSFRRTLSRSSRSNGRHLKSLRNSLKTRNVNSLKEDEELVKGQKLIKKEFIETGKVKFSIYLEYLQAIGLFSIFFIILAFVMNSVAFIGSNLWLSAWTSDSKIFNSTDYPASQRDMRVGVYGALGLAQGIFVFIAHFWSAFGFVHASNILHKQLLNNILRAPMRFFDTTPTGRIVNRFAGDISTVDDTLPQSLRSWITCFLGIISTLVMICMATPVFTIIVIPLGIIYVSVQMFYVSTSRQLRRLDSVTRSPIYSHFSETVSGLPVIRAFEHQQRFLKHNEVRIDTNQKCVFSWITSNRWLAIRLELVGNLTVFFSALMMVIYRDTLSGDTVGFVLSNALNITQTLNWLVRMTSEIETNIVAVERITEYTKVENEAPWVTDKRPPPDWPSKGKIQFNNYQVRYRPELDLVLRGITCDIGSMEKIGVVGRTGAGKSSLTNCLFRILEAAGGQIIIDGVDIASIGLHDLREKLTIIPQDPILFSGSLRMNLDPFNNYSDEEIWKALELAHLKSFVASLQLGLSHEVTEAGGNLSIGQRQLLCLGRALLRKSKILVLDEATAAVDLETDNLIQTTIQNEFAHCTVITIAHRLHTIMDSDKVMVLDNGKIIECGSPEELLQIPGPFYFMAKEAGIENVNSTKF

[4] = biological target: T4, ATP-binding cassette sub-family C member 3 (Homo sapiens, UniProt O15438); test: Inhibitors of transporters of clinical importance in the absorption and disposition of drugs, MPR3
T4 sequence (O15438 whole entry): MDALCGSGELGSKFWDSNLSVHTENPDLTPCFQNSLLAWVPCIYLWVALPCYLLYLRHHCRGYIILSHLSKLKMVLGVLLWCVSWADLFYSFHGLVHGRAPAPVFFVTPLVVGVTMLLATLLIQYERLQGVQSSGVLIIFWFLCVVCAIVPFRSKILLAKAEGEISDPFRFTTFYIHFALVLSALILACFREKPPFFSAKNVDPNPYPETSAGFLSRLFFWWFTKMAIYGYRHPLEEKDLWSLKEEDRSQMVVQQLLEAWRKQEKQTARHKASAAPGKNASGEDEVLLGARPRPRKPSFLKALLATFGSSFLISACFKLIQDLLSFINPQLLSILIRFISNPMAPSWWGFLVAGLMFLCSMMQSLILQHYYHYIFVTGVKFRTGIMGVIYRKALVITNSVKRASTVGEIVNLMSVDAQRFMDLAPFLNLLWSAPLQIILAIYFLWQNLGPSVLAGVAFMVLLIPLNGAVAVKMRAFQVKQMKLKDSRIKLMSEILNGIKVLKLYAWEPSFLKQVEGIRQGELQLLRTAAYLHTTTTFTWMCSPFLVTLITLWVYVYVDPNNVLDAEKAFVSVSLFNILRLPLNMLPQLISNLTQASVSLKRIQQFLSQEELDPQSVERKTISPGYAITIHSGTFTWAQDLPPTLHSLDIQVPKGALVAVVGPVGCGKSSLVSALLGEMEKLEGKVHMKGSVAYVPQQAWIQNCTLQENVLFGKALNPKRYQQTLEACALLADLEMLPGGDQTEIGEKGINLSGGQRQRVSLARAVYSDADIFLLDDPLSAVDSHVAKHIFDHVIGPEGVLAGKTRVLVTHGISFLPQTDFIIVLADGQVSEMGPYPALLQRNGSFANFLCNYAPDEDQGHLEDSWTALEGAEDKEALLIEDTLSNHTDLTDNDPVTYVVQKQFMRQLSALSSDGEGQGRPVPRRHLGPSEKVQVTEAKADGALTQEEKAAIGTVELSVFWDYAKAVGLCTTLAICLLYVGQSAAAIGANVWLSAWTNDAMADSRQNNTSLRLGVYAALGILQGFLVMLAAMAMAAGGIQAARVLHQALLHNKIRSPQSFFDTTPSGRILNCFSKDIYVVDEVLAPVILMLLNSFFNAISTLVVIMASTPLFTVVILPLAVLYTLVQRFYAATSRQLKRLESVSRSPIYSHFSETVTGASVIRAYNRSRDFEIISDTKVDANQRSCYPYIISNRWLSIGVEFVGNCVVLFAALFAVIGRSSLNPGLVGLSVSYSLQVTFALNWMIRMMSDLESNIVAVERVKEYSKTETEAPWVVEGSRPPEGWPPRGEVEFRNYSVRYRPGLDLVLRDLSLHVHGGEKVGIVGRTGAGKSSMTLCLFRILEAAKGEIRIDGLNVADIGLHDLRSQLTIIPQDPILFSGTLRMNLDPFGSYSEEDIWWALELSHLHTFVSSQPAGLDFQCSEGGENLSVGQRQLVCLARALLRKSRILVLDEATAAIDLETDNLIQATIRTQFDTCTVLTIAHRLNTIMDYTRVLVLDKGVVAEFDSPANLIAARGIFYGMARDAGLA

[5] = biological target: T1, Solute carrier organic anion transporter family member 1B1; test: Substrates of transporters of clinical importance in the absorption and disposition of drugs, OATP1B1
[6] = biological target: T5, Solute carrier organic anion transporter family member 1B3 (Homo sapiens, UniProt Q9NPD5); test: Substrates of transporters of clinical importance in the absorption and disposition of drugs, OATP1B3
T5 sequence (Q9NPD5 whole entry): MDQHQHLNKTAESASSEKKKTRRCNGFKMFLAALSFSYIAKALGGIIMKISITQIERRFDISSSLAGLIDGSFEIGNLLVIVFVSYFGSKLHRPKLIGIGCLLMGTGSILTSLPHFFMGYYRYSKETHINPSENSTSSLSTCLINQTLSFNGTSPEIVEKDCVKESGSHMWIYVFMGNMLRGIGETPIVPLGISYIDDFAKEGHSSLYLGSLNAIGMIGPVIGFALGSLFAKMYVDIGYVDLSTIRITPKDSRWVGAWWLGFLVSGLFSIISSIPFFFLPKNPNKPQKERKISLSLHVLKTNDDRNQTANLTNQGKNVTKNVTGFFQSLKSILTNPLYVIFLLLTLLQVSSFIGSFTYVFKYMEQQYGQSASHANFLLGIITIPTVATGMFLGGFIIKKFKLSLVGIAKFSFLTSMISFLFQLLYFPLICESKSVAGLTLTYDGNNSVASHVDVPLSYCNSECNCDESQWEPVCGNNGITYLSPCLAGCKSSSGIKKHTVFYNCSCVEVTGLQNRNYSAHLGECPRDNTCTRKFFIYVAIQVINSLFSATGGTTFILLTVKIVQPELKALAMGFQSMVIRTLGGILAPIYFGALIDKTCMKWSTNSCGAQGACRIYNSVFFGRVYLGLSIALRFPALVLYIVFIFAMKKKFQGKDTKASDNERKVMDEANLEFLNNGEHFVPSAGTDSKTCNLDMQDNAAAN

[7] = biological target: T4, ATP-binding cassette sub-family C member 3; test: Substrates of transporters of clinical importance in the absorption and disposition of drugs, MPR3
[8] = biological target: T6, Broad substrate specificity ATP-binding cassette transporter ABCG2 (Homo sapiens, UniProt Q9UNQ0); test: Inhibitors of transporters of clinical importance in the absorption and disposition of drugs, BCRP
T6 sequence (Q9UNQ0 whole entry): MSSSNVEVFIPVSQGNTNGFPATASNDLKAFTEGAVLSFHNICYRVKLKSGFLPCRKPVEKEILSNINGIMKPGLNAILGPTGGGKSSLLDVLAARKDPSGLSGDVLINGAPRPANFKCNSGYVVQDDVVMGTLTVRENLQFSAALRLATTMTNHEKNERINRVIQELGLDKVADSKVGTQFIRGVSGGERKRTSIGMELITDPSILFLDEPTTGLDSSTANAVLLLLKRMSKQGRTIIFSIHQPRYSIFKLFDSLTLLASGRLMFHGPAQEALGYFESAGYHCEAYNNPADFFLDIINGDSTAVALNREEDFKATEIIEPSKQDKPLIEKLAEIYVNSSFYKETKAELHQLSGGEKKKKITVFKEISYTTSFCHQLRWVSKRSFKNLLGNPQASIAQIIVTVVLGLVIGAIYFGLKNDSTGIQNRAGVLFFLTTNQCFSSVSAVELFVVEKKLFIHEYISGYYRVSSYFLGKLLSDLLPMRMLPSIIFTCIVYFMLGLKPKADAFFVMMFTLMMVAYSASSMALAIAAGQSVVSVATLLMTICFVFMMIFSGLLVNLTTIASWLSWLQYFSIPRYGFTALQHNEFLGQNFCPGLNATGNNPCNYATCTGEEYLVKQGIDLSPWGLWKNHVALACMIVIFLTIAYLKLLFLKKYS

[9] = biological target: T2, Solute carrier organic anion transporter family member 1A2; test: Substrates of transporters of clinical importance in the absorption and disposition of drugs, OATP1A2
[10] = biological target: T7, Solute carrier organic anion transporter family member 2B1 (Homo sapiens, UniProt O94956); test: Substrates of transporters of clinical importance in the absorption and disposition of drugs, OATP2B1
T7 sequence (O94956 whole entry): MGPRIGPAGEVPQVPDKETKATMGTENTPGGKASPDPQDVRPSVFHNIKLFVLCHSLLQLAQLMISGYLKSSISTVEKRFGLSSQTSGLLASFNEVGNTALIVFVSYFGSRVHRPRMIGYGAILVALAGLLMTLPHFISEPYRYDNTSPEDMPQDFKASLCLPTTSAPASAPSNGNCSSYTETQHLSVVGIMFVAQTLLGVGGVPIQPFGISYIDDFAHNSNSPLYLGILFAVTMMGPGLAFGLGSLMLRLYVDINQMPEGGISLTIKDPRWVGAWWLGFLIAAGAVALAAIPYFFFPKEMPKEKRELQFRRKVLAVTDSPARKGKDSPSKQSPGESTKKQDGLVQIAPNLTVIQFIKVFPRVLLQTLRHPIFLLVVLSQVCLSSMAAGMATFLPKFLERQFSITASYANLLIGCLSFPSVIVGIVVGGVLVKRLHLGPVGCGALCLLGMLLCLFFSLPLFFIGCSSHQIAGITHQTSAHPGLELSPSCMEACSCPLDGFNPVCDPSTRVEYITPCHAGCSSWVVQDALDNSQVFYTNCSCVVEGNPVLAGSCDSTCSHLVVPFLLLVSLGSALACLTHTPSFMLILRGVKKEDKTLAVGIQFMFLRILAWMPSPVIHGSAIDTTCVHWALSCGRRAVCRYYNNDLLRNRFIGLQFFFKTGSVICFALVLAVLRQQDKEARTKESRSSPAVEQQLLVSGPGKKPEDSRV

[11] = biological target: T6, Broad substrate specificity ATP-binding cassette transporter ABCG2; test: Substrates of transporters of clinical importance in the absorption and disposition of drugs, BCRP
[12] = biological target: T3, ATP-binding cassette sub-family C member 2; test: Substrates of transporters of clinical importance in the absorption and disposition of drugs, MRP2
[13] = biological target: T8, ATP-binding cassette sub-family C member 4 (Homo sapiens, UniProt O15439); test: Substrates of transporters of clinical importance in the absorption and disposition of drugs, MRP4
T8 sequence (O15439 whole entry): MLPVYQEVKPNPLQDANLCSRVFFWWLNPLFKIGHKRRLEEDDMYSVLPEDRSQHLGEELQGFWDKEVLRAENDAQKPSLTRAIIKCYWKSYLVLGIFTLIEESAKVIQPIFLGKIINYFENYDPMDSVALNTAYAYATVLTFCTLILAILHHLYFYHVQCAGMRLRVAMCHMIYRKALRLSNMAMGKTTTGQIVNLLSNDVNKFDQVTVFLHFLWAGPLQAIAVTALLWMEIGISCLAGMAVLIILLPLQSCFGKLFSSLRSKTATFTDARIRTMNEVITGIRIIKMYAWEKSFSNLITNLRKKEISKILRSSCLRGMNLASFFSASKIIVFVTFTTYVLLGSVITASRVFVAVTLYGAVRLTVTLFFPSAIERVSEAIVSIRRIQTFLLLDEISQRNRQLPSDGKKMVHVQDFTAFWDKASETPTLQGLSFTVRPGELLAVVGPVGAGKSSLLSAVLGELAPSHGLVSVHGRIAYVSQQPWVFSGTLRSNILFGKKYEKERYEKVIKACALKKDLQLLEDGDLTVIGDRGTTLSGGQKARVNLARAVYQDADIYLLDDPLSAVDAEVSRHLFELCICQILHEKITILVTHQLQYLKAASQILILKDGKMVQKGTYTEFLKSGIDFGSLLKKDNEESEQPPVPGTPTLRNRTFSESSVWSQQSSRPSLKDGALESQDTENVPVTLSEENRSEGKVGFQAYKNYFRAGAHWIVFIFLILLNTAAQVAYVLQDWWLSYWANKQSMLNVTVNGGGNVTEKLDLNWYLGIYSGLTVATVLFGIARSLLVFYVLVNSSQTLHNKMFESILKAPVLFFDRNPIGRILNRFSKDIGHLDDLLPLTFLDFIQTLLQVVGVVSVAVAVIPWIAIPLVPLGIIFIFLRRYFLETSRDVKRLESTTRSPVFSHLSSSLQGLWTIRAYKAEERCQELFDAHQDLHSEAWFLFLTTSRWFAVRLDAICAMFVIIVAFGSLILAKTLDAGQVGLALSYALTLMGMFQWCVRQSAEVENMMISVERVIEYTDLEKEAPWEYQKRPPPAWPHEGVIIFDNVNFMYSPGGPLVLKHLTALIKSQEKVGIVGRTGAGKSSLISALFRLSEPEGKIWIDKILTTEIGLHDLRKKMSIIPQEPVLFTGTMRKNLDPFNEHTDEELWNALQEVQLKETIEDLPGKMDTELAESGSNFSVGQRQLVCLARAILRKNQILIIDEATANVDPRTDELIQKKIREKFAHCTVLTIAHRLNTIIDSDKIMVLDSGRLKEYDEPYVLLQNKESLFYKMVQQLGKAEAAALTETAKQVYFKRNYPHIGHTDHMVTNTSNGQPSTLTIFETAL

Activity [1]: transporter inhibitor
Activity [2]: transporter inhibitor
Structure (SMILES): CC(C)(C)NC(=O)[C@@H]1C[C@@H]2CCCC[C@@H]2CN1C[C@@H](O)[C@H](Cc1ccccc1)NC(=O)[C@H](CC(N)=O)NC(=O)c1ccc2ccccc2n1

Activity [3]: transporter inhibitor
Activity [4]: transporter inhibitor
Structure (SMILES): CC(C)Nc1cccnc1N1CCN(C(=O)c2cc3cc(NS(C)(=O)=O)ccc3[nH]2)CC1 [DELAVIRDINE]

Activity [3]: transporter inhibitor
Activity [4]: transporter inhibitor
Structure (SMILES): O=C1Nc2ccc(Cl)cc2[C@@](C#CC2CC2)(C(F)(F)F)O1 [EFAVIRENZ]

Structure (SMILES): C[C@]12CC[C@@H]3c4ccc(O)cc4CC[C@H]3[C@@H]1CC[C@@H]2O[C@@H]1O[C@H](C(=O)O)[C@@H](O)[C@H](O)[C@H]1O [ESTRADIOL 17B GLUCURONIDE]
Activity [5]: transporter substrate
Activity [6]: transporter substrate
Activity [7]: transporter substrate

Activity [8]: transporter inhibitor
Structure (SMILES): C[C@]12CC[C@@H]3c4ccc(O)cc4CC[C@H]3[C@@H]1CC[C@@H]2O [ESTRADIOL]

Activity [8]: transporter inhibitor
Structure (SMILES): C[C@]12CC[C@@H]3c4ccc(O)cc4CC[C@H]3[C@@H]1CCC2=O [ESTRONE]

Activity [6]: transporter substrate
Activity [9]: transporter substrate
Activity [10]: transporter substrate
Activity [7]: transporter substrate
Structure (SMILES): CC(C)(C(=O)O)c1ccc(C(O)CCCN2CCC(C(O)(c3ccccc3)c3ccccc3)CC2)cc1 (stereo unspecified) [FEXOFENADINE]

Structure (SMILES): COc1ccc2c3c([nH]c2c1)[C@H](C=C(C)C)N1C(=O)[C@@H]2CCCN2C(=O)[C@@H]1C3 [FUMITREMORGIN]
Activity [8]: transporter inhibitor

Activity [9]: transporter substrate
Activity [11]: transporter substrate
Activity [12]: transporter substrate
Activity [7]: transporter substrate
Activity [13]: transporter substrate
Structure (SMILES): CN(Cc1cnc2nc(N)nc(N)c2n1)c1ccc(C(=O)N[C@@H](CCC(=O)O)C(=O)O)cc1 [METHOTREXATE]
